Measurements: patent KR20100130589A, “중독 치료에서의 aldh-2 저해제” (질레드 팔로 알토 인코포레이티드, priority 2008, dated 2009)
“Also recorded” adds a separate entry of the source.

Assays:
[1] = Cocaine reinstatement (relapse) after extinction of intravenous cocaine self-administration; type: in vivo, Sprague-Dawley rat; settings: rat; for effect on cocaine-induced relapse, compared with Compound A (result in words): tested similarly
[2] = Nicotine intravenous self-administration; type: in vivo, Wistar-derived rat; settings: rat, escalating doses 0.00, 7.5, 10 and 15 mg/kg ip, 30 min before session; Figure 1
[3] = in vivo; cited from earlier work
[4] = target: T1, human mitochondrial aldehyde dehydrogenase (ALDH-2) [인간 미토콘드리아 알데히드 디히드로게나아제 (ALDH-2)] (Homo sapiens, UniProt P05091); settings: potency and selectivity in words; cited from earlier work
T1 sequence (P05091 18-517): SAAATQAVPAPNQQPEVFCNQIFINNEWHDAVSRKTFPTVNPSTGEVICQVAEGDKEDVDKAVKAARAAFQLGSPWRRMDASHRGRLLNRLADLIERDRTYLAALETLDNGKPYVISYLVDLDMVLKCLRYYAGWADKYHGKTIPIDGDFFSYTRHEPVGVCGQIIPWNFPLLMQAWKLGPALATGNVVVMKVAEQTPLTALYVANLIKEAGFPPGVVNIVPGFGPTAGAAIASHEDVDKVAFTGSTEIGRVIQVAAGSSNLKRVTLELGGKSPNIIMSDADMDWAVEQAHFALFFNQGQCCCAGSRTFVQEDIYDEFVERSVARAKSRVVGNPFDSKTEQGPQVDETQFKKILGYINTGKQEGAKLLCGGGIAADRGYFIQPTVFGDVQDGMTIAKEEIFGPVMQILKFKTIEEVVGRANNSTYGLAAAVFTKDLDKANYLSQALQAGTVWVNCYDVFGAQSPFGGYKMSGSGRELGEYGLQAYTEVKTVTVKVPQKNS

In the case of `O=C(O)c1cccc(-c2nc(COc3ccc4c(=O)c(-c5ccc(O)cc5)coc4c3)no2)c1` [3-(3-{[3-(4-히드록시페닐)-4-옥소크로멘-7-일옥시]메틸}-1,2,4-옥사디아졸-5-일)벤조산], the “effect on cocaine-induced relapse, compared with Compound A (result in words)” value [1] was “유사한 결과가 수득되었다”.
For `CS(=O)(=O)Nc1ccc(-c2coc3cc(OCc4cccc(C(=O)O)c4)ccc3c2=O)cc1` [3-[(3-{4-[(메틸술포닐)아미노]페닐}-4-옥소크로멘-7-일옥시)메틸]벤조산], the “number of bar presses for nicotine (plotted as number of infusions)” value [2] was “횟수를 감소시켰다; also recorded: 바아 프레스의 횟수를 감소시키는”, the “lever press response after cocaine priming (effect in words)” value ([1]; 7.5 and 10 mg/kg before priming injection of cocaine (10 mg/kg)) was “지렛대 누름 반응에서 증가를 보여주지 않았다 (재발하지 않음)” and the “cocaine relapse (effect in words)” value ([1]; ip, dose-dependent, cocaine priming 10 mg/kg) was “투여량에 좌우되어 코카인에 대한 재발을 차단했다”.
In the case of `O=c1c(-c2ccc(O)cc2)coc2cc(OCc3noc(-c4cc(F)cc(C(F)(F)F)c4)n3)ccc12` [7-({5-[3-플루오로-5-(트리플루오로메틸)페닐](1,2,4-옥사디아졸-3-일)}메톡시)-3-(4-히드록시페닐)크로멘-4-온], the “effect on cocaine-induced relapse, compared with Compound A (result in words)” value [1] was “유사한 결과가 수득되었다”.
For `O=c1c(-c2ccc(O)cc2)coc2cc(O[C@@H]3O[C@H](CO)[C@@H](O)[C@H](O)[C@H]3O)ccc12` [다이드진 (daidzein)], the “suppression of ethanol intake / absorption (in words)” value [3] is given as “에탄올 섭취 억제에 효과적인”.
For `O=c1c(-c2ccc(O)cc2)coc2cc(O)ccc12` [다이드진], the “inhibition of ALDH-2 (in words)” value [4] is listed as “강력하고 선택적인 저해제” and the “suppression of ethanol intake / absorption (in words)” value [3] is listed as “에탄올 흡수 억제에 유효한”.
